# Biological target: IDO (Homo sapiens (Human), UniProt P14902)
# Assay: Kynurenine assay in IFN-γ-stimulated Hela cells
# Assay type: cell-based
# Conditions: 20 h, read-out: Hela Kyurenine (IC50)
# Experimental: Reagents: Hela cells (ATCC, CCL-2)
# IFNg (R&D, 28-IF-100)—resuspend at 10 ug/mL in PBS with 0.1% BSA 30% TCA
# Ehrlich reagent (2% w/v p-dimethylaminobenzaldehyde in glacial acetic acid)
# Cell Lines and Culture Conditions
# Hela cancer cell lines were acquired from the American Type Culture Collection. Cells were maintained in phenol red free-RPMI1640 medium containing high glucose and L-glutamine (Invitrogen) supplemented with 10% fetal bovine serum (FBS; Invitrogen). Cell cultures were incubated at 37° C., 5% CO2, and 100% humidity.
# Cell Treatment and Kynurenine Assay
# Hela cells were seeded on 96-well plates (40,000 cells per well) and allowed to adhere for 5-6 hours. Cells were then treated with vehicle (DMSO) or with IDO inhibitor at a top dose of 30 μM (3-fold dilution all the way down to 1.5 nM). A final concentration of 100 ng/mL of human recombinant IFN-γ (R&D, 28-IF-100) was immediately added to the cells to stimulate IDO expression. Treated cells were then incubated for 20 hours at 37° C. At the end of the 20 h incubation, reactions were terminated by the addition of 30% TCA to each well. Plates were incubated for 30 minutes at 50° C. to hydrolyze N-formylkynurenine to kynurenine. Cells were centrifuged 10 minutes at 2400 rpm. 100 ul of supernatants were transferred to new 96 flat well plates and mixed with 100 ul Ehrlich reagent. The resulting solution was incubated 10 minutes at RT. Absorbance at 490 nm was read using Spectra Max 384 (Molecular Devices).
# IDO, sequence (P14902 whole entry): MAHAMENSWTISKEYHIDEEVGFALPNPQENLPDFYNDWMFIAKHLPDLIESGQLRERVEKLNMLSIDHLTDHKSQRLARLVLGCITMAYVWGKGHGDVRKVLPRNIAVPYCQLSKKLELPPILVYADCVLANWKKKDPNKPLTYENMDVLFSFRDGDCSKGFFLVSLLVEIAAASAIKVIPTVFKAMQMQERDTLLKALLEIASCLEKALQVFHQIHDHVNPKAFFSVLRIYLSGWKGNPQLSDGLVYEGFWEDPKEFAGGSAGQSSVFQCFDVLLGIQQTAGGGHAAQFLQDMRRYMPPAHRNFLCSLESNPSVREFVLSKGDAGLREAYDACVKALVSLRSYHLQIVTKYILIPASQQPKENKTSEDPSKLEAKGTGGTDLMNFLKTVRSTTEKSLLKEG
row,SMILES,IC50
1,"O=C(Nc1ccc(OC(F)(F)F)cc1)Nc1cc(-c2cccc(C(=O)O)c2)ccc1Oc1ccc(Cl)cc1 [Example 243, 4′-(4-chlorophenoxy)-3′-(3-(4-(trifluoromethoxy)phenyl)ureido) biphenyl-3-carboxylic acid]",1820 nM
2,"CCc1ccccc1Oc1ccc(-c2ccc(OC)c(C(=O)O)c2)cc1NC(=O)Nc1ccccc1Cl [Example 55, 3′-(3-(2-chlorophenyl)ureido)-4′-(2-ethylphenoxy)-4-methoxybiphenyl-3-carboxylic acid]",110 nM
3,COc1ccc(-c2cnc(Oc3ccccc3C(C)(C)C)c(NC(=O)Nc3ccc(C)cc3)c2)cc1C(=O)O [Example 335],340 nM
4,"CC(C)(C)c1ccccc1Oc1ccc(-c2ccccc2-c2nnn[nH]2)cc1NC(=O)Nc1ccccc1C(F)(F)F [Example 183, 1-(4-(2-tert-butylphenoxy)-2′-(1H-tetrazol-5-yl)biphenyl-3-yl)-3-(2-(trifluoromethyl)phenyl)urea]",690 nM
5,"Cc1ccc(NC(=O)Nc2cc(-c3cccc(C(=O)O)c3)ccc2Oc2ccc(Cl)cc2)cc1 [Example 248, 4′-(4-chlorophenoxy)-3′-(3-p-tolylureido) biphenyl-3-carboxylic acid]",1490 nM
6,Cc1ccc(NC(=O)Nc2cc(-c3ccc(C(=O)O)cc3)cnc2Oc2ccccc2)cc1 [Example 338],87900 nM
7,"COc1ccc(-c2ccc(Oc3ccccc3C(C)(C)C)c(NC(=O)Nc3cc(C)ccc3C)c2)cc1C(=O)O [Example 95, 4′-(2-(tert-butyl)phenoxy)-3′-(3-(2,5-dimethylphenyl)ureido)-4-methoxy-[1,1′-biphenyl]-3-carboxylic acid]",260 nM
8,"O=C(Nc1ccccc1)Nc1cc(-c2ccccc2-c2nnn[nH]2)ccc1Oc1cccc2c1CCCC2 [Example 184, 1-phenyl-3-(4-(5,6,7,8-tetrahydronaphthalen-1-yloxy)-2′-(1H-tetrazol-5-yl)biphenyl-3-yl)urea]",1100 nM
9,"COc1ccc(-c2ccc(Oc3ccccc3C(C)(C)C)c(NC(=O)Nc3ccc(C)c(C)c3)c2)cc1C(=O)O [Example 96, 4′-(2-(tert-butyl)phenoxy)-3′-(3-(3,4-dimethylphenyl)ureido)-4-methoxy-[1,1′-biphenyl]-3-carboxylic acid]",180 nM
10,"COc1ccc(-c2ccc(Oc3ccccc3Cl)c(NC(=O)Nc3ccc(C)cc3)c2)cc1C(=O)O [Example 51, 4′-(2-chlorophenoxy)-4-methoxy-3′-(3-p-tolylureido)biphenyl-3-carboxylic acid]",830 nM
11,"Cc1ccc(NC(=O)Nc2cc(-c3cccc(C(=O)O)c3)ccc2Oc2c(Cl)cccc2Cl)cc1 [Example 247, 4′-(2,6-dichlorophenoxy)-3′-(3-p-tolylureido) biphenyl-3-carboxylic acid]",1340 nM
12,"CCc1ccccc1Oc1ccc(-c2ccc(OC)c(C(=O)O)c2)cc1NC(=O)Nc1ccc(C(F)(F)F)cc1 [Example 48, 4′-(2-ethylphenoxy)-4-methoxy-3′-(3-(4-(trifluoromethyl)phenyl)ureido)biphenyl-3-carboxylic acid]",1230 nM
13,"COc1ccc(-c2ccc(Oc3ccccc3C(C)(C)C)c(NC(=O)Nc3ccc(C(C)(C)C)cc3)c2)cc1C(=O)O [Example 99, 4′-(2-(tert-butyl)phenoxy)-3′-(3-(4-(tert-butyl)phenyl)ureido)-4-methoxy-[1,1′-biphenyl]-3-carboxylic acid]",220 nM
14,"CC(C)(C)c1ccccc1Oc1ccc(-c2cc(Cl)cc(C(=O)O)c2)cc1NC(=O)Nc1ccc(OC(F)(F)F)cc1 [Example 262, 4′-(2-tert-butylphenoxy)-5-chloro-3′-(3-(4-(trifluoromethoxy)phenyl)ureido) biphenyl-3-carboxylic acid]",4560 nM
15,"COc1ccc(-c2ccc(Oc3ccccc3C(C)(C)C)c(NC(=O)Nc3ccc(C)cc3)c2)cc1C(=O)NS(C)(=O)=O [Example 41, 4′-(2-tert-butylphenoxy)-4-methoxy-N-(methylsulfonyl)-3′-(3-p-tolylureido)biphenyl-3-carboxamide]",430 nM
16,"CC(C)(C)c1ccccc1Oc1ccc(-c2ccc(C(=O)O)cc2)cc1NC(=O)Nc1ccc(OC(F)(F)F)cc1 [Example 265, 4′-(2-tert-butylphenoxy)-3′-(3-(4-(trifluoromethoxy)phenyl)ureido)biphenyl-4-carboxylic acid]",3460 nM
17,"COc1ccccc1Oc1ccc(-c2ccc(OC)c(C(=O)O)c2)cc1NC(=O)Nc1ccccc1Cl [Example 68, 3′-(3-(2-chlorophenyl)ureido)-4-methoxy-4′-(2-methoxyphenoxy)biphenyl-3-carboxylic acid]",490 nM

# Further lines, results first:
row,IC50,SMILES
1,780 nM,"C#CCNC(=O)Nc1cc(-c2ccc(OC)c(C(=O)O)c2)ccc1Oc1ccccc1C(C)(C)C [Example 119, 4′-(2-tert-butylphenoxy)-4-methoxy-3′-(3-prop-2-ynylureido)biphenyl-3-carboxylic acid]"
2,1850 nM,"CC(C)(C)c1ccccc1Oc1ccc(-c2cccc(C(=O)O)c2)cc1NC(=O)Nc1ccccc1 [Example 234, 4′-(2-tert-butylphenoxy)-3′-(3-phenylureido) biphenyl-3-carboxylic acid]"
3,1040 nM,"CC(C)(C)c1ccccc1Oc1ccc(-c2cc(Cl)cc(C(=O)O)c2)cc1NC(=O)Nc1ccc(C(F)(F)F)cc1 [Example 241, 4′-(2-tert-butylphenoxy)-5-chloro-3′-(3-(4-(trifluoromethyl)phenyl)ureido) biphenyl-3-carboxylic acid]"
4,840 nM,"COc1ccc(-c2ccc(Oc3ccccc3C(C)(C)C)c(NC(=O)Nc3c(Cl)cccc3Cl)c2)cc1C(=O)O [Example 82, 4′-(2-(tert-butyl)phenoxy)-3′-(3-(2,6-dichlorophenyl)ureido)-4-methoxy-[1,1′-biphenyl]-3-carboxylic acid]"
5,490 nM,"COc1ccc(-c2ccc(Oc3ccccc3C(C)(C)C)c(NC(=O)Nc3ccccc3C)c2)cc1C(=O)O [Example 44, 4′-(2-tert-butylphenoxy)-4-methoxy-3′-(3-o-tolylureido)biphenyl-3-carboxylic acid]"
6,650 nM,"Cc1ccc(NC(=O)Nc2cc(-c3ccc(C(=O)O)c(F)c3)ccc2Oc2ccccc2C(C)(C)C)cc1 [Example 218, 4′-(2-tert-butylphenoxy)-3-fluoro-3′-(3-p-tolylureido) biphenyl-4-carboxylic acid]"
7,720 nM,"COc1ccc(-c2ccc(Oc3ccccc3C(C)(C)C)c(NC(=O)Nc3cccc(C#N)c3)c2)cc1C(=O)O [Example 108, 4′-(2-(tert-butyl)phenoxy)-3′-(3-(3-cyanophenyl)ureido)-4-methoxy-[1,1′-biphenyl]-3-carboxylic acid]"
8,720 nM,"CC(C)(C)c1ccccc1Oc1ccc(-c2cccc(C(=O)O)c2)cc1NC(=O)Nc1cccc(Cl)c1 [Example 231, 4′-(2-tert-butylphenoxy)-3′-(3-(3-chlorophenyl)ureido)biphenyl-3-carboxylic acid]"
9,1100 nM,"CC(C)(C)c1ccccc1Oc1ccc(-c2cc(F)cc(C(=O)O)c2)cc1NC(=O)Nc1ccccc1Cl [Example 253, 4′-(2-tert-butylphenoxy)-3′-(3-(2-chlorophenyl)ureido)-5-fluorobiphenyl-3-carboxylic acid]"
10,370 nM,"COc1ccc(-c2ccc(Oc3ccccc3C(C)(C)C)c(NC(=O)Nc3ccc(Cl)c(Cl)c3)c2)cc1C(=O)O [Example 105, 4′-(2-(tert-butyl)phenoxy)-3′-(3-(3,4-dichlorophenyl)ureido)-4-methoxy-[1,1′-biphenyl]-3-carboxylic acid]"
11,130 nM,"COc1ccc(-c2ccc(Oc3ccccc3C(C)(C)C)c(NC(=O)Nc3c(F)cccc3F)c2)cc1C(=O)O [Example 80, 4′-(2-(tert-butyl)phenoxy)-3′-(3-(2,6-difluorophenyl)ureido)-4-methoxy-[1,1′-biphenyl]-3-carboxylic acid]"
12,370 nM,"COc1ccc(-c2ccc(Oc3ccccc3C(C)(C)C)c(NC(=O)Nc3ccc(C)cc3)c2)cc1C(=O)O [Example 255, 4′-(2-tert-butylphenoxy)-4-methoxy-3′-(3-p-tolylureido) biphenyl-3-carboxylic acid]"
13,100 nM,"COc1ccc(-c2ccc(Oc3ccccc3C(C)(C)C)c(NC(=O)Nc3cc(Cl)ccc3Cl)c2)cc1C(=O)O [Example 104, 4′-(2-(tert-butyl)phenoxy)-3′-(3-(2,5-dichlorophenyl)ureido)-4-methoxy-[1,1′-biphenyl]-3-carboxylic acid]"
14,930 nM,"CCNC(=O)Nc1cc(-c2cccc(C(=O)O)c2)ccc1Oc1ccccc1C(C)(C)C [Example 220, 4′-(2-tert-butylphenoxy)-3′-(3-ethylureido) biphenyl-3-carboxylic acid]"
15,1090 nM,"Cc1ccccc1NC(=O)Nc1cc(-c2ccc(C(=O)O)c(Cl)c2)ccc1Oc1ccccc1C(C)(C)C [Example 216, 4′-(2-tert-butylphenoxy)-3-chloro-3′-(3-o-tolylureido) biphenyl-4-carboxylic acid]"
16,110 nM,"COc1ccc(-c2ccc(Oc3ccccc3C(C)(C)C)c(NC(=O)Nc3cccc(Cl)c3)c2)cc1C(=O)O [Example 85, 4′-(2-(tert-butyl)phenoxy)-3′-(3-(3-chlorophenyl)ureido)-4-methoxy-[1,1′-biphenyl]-3-carboxylic acid]"

# Reference: US9765018B2, “IDO inhibitors” (BRISTOL-MYERS SQUIBB COMPANY, priority 2013, dated 2017)
